Experimental findings from paper PMC10045593, “Ubiquitin-Specific Proteases as Potential Therapeutic Targets in Bladder Cancer—In Vitro Evaluation of Degrasyn and PR-619 Activity Using Human and Canine Models” (Biomedicines, 2023) are described below.

Test [1] relates to T24 cell line. Put plainly: MTT cell proliferation assay. It is filed as cell-based, human. The following applies: for cells killed at the highest concentration: T24, MTT, highest concentration used (20 μM). Here is the method:
Cell proliferation was determined using the 3-(4,5-dimethylthiazol-2-yl)-2,5-diphenyltetrazolium bromide (MTT) assay (Sigma-Aldrich, Steinheim, Germany). Cells were plated at a density of 1 × 10^5 cells per mL in 96-well plates (Thermo Fisher Scientific, Roskilde, Denmark) and allowed to attach overnight. Subsequently, Degrasyn and PR-619 were added in increasing concentrations (0.6, 1.25, 2.5, 5, 10, and 20 μM). After incubation for 24, 48, and 72 h with either the compounds or in the medium alone, 20 μL of MTT solution (5 mg/mL) was added to each well. After an additional 4 h, 80 μL of the lysis buffer (225 mL DMF, 67.5 g SDS, and 275 mL distilled water) was added to each well. After dissolving the content, the absorbance was measured at a […] of 570 nm using a spectrophotometric microplate reader Spark (Tecan). The values were obtained from 3 independent experiments (different plates, different days). Based on the results, the concentration that inhibited 50% of the cell proliferation (IC50) was calculated for all incubation intervals.

In test [2] the test system is Bcl-xl in all cell lines (SV-HUC-1, T24, K9TCC-PU-NK, RDSVS-TCC1). Put plainly: Western blot for Bcl-xl expression. It is filed as cell-based, human and canine. The following applies: 24 h. The method, then:
Western blot was performed to assess the expression of USP5, USP9X, and USP14 in analyzed cell lines. After 24 h of incubation with increasing concentrations of Degrasyn and PR-619, the expression of proteins involved in apoptosis (Bcl-2 and Bcl-xl) and a marker of DNA damage (γH2A.X) was also evaluated. Briefly, cells were rinsed with cold phosphate-buffered saline (PBS), suspended in lysis buffer (50 mM Tris-HCl pH 7.5, 100 mM NaCl, 1% NP-40, protease inhibitors set), and incubated for 20 min on ice. Subsequently, after centrifuging at 10,000 rpm at 4 °C for 12 min, sodium dodecyl sulfate (SDS) sample buffer was added to […]. After boiling for 5 min at 95 °C, the samples were subjected to SDS-polyacrylamide gel electrophoresis on 8–15% gel. For USP5, USP9X, USP14, γH2A.X, Bcl-2, and Bcl-xl expression analysis, transfers onto nitrocellulose membranes were performed using a Semidry Transfer Cell or wet transfer method (Bio-Rad, Hercules, CA, USA). After transfer, the membranes were blocked with 1% casein in TBS (or 3% BSA for γH2Ax) at room temperature for 1 h. […]
(In general: Immunoblotting shows a protein as a band on a membrane.)

For another test, the system named is K9TCC-PU-NK cell line. Put plainly: Ki-67 flow cytometry proliferation assay. The class given is cell-based, canine. The following applies: 24 h, p < 0.05. The method, then:
(§1) For the cell proliferation assay, cells were plated in 100 mm cell culture plates. When the cultures reached 60% confluence, the media were discarded from the wells and replaced with culture media only or media with added compounds (Degrasyn, PR-619) with increasing concentrations for 24 h. The growth medium was then removed from the wells, the cells were rinsed twice with PBS, and 0.25% trypsin-EDTA was added to detach the cells. After 5 min of incubation at 37 °C and 5% CO2, the fresh culture medium was added to inactivate the trypsin, and cells were collected in flow cytometry tubes. Cells were then labeled using the Ki-67 Proliferation Kit BD Pharmingen(BD Biosciences) according to the manufacturer’s instructions and analyzed using a flow cytometer (Cytoflex, Beckman Coulter). Unstained control cells were used for gating to determine the percentage of the proliferation of the Ki-67-positive cells in the samples. Percentages of proliferating (Ki-67 positive) cells were used to calculate the means ± SD for each cell line. The presented results were obtained from three independent experiments.
For orientation: In flow cytometry, cells or beads pass a laser one at a time.

Another test relates to RDSVS-TCC1 cell line. The test is described as follows: Ki-67 flow cytometry proliferation assay. It is filed as cell-based, canine. The conditions noted are these: RDSVS-TCC1, 24 h, p < 0.05. Here is the method: as §1
Test [3] relates to T24 cell line. Put plainly: Annexin V-FITC/PI apoptosis flow cytometry. It is filed as cell-based, human. The following applies: T24, 24 h; for pro-apoptotic effect (number of apoptotic cells vs control): increasing concentrations up to approximately IC50. Here is the method: (§2) To assess the level of apoptosis induced by Degrasyn and PR-619, cells were seeded at a density of 1 × 10^5/mL in 96-well plates (TPP, Trasadingen, Switzerland) and incubated for 24 h with increasing concentrations of compounds. Cells were then collected, suspended in a binding buffer, and stained with Annexin V-FITC for 10 min at room temperature. Subsequently, PI was added, and flow cytometric analysis was immediately performed using a flow cytometers (FACS Calibur, Becton Dickinson, Biosciences, San Jose, CA, USA; CytoFlex, Beckman Coulter, CA, USA). CellQuest 3.lf. (Becton Dickinson, San Jose, CA, USA) and CytExpert 2.4 (Beckman Coulter, CA, USA) software were used for data analysis.

For test [4], the system named is SV-HUC-1 cell line. Put plainly: Annexin V-FITC/PI apoptosis flow cytometry. The class given is cell-based, human. The following applies: SV-HUC-1, 24 h; for pro-apoptotic effect (number of apoptotic cells vs control): increasing concentrations up to approximately IC50. The method, then:
as §2

The subject of test [5] is T24 cell line. The test is described as follows: Ki-67 flow cytometry proliferation assay. The class given is cell-based, human. The conditions noted are these: T24, 24 h, p < 0.05. Here is the method: as §1
The subject of test [6] is SV-HUC-1 cell line. The test is described as follows: Ki-67 flow cytometry proliferation assay. It is filed as cell-based, human. The following applies: SV-HUC-1, 24 h, p < 0.05. Here is the method:
as §1

Where [7] appears, read: only highest concentration 10 µM.
The mark [8] stands for this setting: only highest concentration 5 µM.

Regarding `N#CSc1cc(SC#N)c(N)nc1N` [PR-619], the “cells killed at the highest concentration” value with T24 cell line [1] is on record as about 100%. In test [2] (analyzed cell lines, increasing concentrations), the Bcl-xl expression result was “No clearly visible changes”. Also, the “percentage of Ki-67 positive cells (as compared to control)” value in the test on K9TCC-PU-NK cell line (setting [7]), in the test with RDSVS-TCC1 cell line (setting [7]) and in the test with SV-HUC-1 cell line [6] (setting [7]) was “significantly decreased” in each case. Further, the “percentage of early and late apoptotic cells” value with T24 cell line [3] (5 μM) amounted to 9.8 ± 1.5%; with SV-HUC-1 cell line [4] (5 μM), 14.8 ± 5.8%. Besides, the “pro-apoptotic effect (number of apoptotic cells vs control)” value in the test on T24 cell line [3] and with SV-HUC-1 cell line [4] was “did not show a significant pro-apoptotic effect” each time. Also, the “percentage of Ki-67 positive cells (as compared to the control)” value in the test with T24 cell line [5] (5–10 µM) is recorded as “significantly decreased”.

Take `CCC[C@H](NC(=O)/C(C#N)=C/c1cccc(Br)n1)c1ccccc1` [Degrasyn]: the IC50 in the test on T24 cell line [1] (T24, 24 h exposure, MTT, read-out: IC50 (concentration that inhibited 50% of the cell proliferation)) is 3.07 µM. Also, the “cells killed at the highest concentration” value in the test on T24 cell line [1] is recorded as about 100%. The Bcl-xl expression result in test [2] (all cell lines, 5 μM) was “slightly reduced”. In addition, the “percentage of Ki-67 positive cells (as compared to control)” value in the test on K9TCC-PU-NK cell line (setting [8]), with RDSVS-TCC1 cell line (setting [8]) and with SV-HUC-1 cell line [6] (setting [8]) was “significantly decreased” each time. The “percentage of early and late apoptotic cells” value with T24 cell line [3] (2.5 μM) was found to be 32.2 ± 9.2%; in the test on SV-HUC-1 cell line [4] (2.5 μM), 24.1 ± 2.8%. In addition, the “pro-apoptotic effect (number of apoptotic cells vs control)” value in the test on T24 cell line [3] and in the test on SV-HUC-1 cell line [4] was “significant increase” each time. In addition, the “percentage of Ki-67 positive cells (as compared to the control)” value in the test with T24 cell line [5] (2.5–5 µM) is on record as “significantly decreased”.
